Where a SMILES comes first, the peptide text is derived from it. Bridges are numbered along the chain shown (N, C = ends).
Legend:
hNaV1.5 = hNaV1.5 (Homo sapiens, UniProt Q14524); assay: Two-electrode voltage-clamp on Xenopus laevis oocytes expressing NaV1.5; conditions: for inhibition at 100 µM: read-out: Maximum % inhibition NaV1.5
rNaV1.8 = rNaV1.8 (Rattus norvegicus, UniProt Q62968); assay: Two-electrode voltage-clamp on Xenopus laevis oocytes expressing NaV1.8; conditions: for inhibition at 100 µM: read-out: Maximum % inhibition NaV1.8
rNaV1.4 = rNaV1.4 (Rattus norvegicus, UniProt P15390); assay: Two-electrode voltage-clamp on Xenopus laevis oocytes expressing NaV1.4; conditions: for inhibition at 100 µM: read-out: Maximum % inhibition NaV1.4, peptide at 100 μM; for Maximum % inhibition NaV1.4: peptide at 100 μM, 100 µM
mNaV1.6 = mNaV1.6 (Mus musculus, UniProt Q9WTU3); assay: Two-electrode voltage-clamp on Xenopus laevis oocytes expressing NaV1.6; conditions: for inhibition at 100 µM: read-out: Maximum % inhibition NaV1.6, peptide at 100 μM
Sequence of mNaV1.6 (Q9WTU3 whole entry): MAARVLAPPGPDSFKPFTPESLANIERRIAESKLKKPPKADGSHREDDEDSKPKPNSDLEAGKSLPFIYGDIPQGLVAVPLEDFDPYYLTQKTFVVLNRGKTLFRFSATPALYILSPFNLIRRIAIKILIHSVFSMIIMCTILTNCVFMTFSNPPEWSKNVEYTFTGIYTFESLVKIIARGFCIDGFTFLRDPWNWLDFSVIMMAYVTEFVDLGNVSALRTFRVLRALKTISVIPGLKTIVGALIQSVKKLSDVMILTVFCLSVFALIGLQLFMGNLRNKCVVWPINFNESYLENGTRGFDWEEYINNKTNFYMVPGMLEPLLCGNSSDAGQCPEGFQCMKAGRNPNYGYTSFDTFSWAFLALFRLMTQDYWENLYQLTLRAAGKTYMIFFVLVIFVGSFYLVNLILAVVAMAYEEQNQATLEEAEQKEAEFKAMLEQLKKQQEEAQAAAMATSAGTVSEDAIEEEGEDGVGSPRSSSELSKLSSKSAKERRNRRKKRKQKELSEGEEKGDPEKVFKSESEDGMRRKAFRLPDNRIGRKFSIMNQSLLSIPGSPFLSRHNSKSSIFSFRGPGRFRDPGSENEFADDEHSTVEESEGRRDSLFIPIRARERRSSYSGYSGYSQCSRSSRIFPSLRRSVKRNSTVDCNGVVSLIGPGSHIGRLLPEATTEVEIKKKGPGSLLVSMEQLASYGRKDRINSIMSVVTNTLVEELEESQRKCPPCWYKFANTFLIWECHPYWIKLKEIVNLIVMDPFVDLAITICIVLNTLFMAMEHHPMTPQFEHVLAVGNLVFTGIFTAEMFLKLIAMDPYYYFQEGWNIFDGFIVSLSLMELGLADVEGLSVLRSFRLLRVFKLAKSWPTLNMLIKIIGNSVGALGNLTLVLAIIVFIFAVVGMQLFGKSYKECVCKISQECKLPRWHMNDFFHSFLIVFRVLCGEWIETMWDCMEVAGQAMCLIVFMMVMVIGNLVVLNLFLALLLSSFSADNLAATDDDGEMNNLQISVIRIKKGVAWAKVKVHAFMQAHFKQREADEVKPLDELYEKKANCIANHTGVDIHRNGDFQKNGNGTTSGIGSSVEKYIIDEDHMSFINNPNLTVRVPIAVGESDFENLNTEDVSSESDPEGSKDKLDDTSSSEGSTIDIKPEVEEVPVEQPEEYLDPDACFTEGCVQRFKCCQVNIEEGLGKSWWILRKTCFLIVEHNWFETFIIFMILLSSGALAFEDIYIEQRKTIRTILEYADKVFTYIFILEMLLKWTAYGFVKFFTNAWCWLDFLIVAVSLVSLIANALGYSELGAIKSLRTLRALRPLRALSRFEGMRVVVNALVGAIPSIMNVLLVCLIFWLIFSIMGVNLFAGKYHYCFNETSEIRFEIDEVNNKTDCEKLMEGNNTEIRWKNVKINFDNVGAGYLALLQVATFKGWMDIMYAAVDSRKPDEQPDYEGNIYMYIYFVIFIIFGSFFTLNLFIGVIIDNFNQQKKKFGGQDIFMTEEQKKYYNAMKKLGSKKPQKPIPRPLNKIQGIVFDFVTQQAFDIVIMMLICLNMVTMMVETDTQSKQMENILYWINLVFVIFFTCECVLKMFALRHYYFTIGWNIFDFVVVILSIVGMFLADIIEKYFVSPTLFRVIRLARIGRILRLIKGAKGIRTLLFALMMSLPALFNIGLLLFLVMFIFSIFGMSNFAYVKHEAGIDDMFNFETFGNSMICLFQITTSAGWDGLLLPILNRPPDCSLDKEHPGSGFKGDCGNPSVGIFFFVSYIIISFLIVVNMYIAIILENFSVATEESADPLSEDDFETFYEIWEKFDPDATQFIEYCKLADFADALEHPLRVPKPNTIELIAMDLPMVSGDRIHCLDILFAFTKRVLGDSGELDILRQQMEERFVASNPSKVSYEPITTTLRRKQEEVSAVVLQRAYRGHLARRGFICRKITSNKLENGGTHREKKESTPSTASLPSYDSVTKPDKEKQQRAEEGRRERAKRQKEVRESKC

rNaV1.2 = rNaV1.2 (Rattus norvegicus, UniProt P04775); assay: Two-electrode voltage-clamp on Xenopus laevis oocytes expressing NaV1.2; conditions: for inhibition at 100 µM: read-out: Maximum % inhibition NaV1.2, peptide at 100 μM
Sequence of rNaV1.2 (P04775 whole entry): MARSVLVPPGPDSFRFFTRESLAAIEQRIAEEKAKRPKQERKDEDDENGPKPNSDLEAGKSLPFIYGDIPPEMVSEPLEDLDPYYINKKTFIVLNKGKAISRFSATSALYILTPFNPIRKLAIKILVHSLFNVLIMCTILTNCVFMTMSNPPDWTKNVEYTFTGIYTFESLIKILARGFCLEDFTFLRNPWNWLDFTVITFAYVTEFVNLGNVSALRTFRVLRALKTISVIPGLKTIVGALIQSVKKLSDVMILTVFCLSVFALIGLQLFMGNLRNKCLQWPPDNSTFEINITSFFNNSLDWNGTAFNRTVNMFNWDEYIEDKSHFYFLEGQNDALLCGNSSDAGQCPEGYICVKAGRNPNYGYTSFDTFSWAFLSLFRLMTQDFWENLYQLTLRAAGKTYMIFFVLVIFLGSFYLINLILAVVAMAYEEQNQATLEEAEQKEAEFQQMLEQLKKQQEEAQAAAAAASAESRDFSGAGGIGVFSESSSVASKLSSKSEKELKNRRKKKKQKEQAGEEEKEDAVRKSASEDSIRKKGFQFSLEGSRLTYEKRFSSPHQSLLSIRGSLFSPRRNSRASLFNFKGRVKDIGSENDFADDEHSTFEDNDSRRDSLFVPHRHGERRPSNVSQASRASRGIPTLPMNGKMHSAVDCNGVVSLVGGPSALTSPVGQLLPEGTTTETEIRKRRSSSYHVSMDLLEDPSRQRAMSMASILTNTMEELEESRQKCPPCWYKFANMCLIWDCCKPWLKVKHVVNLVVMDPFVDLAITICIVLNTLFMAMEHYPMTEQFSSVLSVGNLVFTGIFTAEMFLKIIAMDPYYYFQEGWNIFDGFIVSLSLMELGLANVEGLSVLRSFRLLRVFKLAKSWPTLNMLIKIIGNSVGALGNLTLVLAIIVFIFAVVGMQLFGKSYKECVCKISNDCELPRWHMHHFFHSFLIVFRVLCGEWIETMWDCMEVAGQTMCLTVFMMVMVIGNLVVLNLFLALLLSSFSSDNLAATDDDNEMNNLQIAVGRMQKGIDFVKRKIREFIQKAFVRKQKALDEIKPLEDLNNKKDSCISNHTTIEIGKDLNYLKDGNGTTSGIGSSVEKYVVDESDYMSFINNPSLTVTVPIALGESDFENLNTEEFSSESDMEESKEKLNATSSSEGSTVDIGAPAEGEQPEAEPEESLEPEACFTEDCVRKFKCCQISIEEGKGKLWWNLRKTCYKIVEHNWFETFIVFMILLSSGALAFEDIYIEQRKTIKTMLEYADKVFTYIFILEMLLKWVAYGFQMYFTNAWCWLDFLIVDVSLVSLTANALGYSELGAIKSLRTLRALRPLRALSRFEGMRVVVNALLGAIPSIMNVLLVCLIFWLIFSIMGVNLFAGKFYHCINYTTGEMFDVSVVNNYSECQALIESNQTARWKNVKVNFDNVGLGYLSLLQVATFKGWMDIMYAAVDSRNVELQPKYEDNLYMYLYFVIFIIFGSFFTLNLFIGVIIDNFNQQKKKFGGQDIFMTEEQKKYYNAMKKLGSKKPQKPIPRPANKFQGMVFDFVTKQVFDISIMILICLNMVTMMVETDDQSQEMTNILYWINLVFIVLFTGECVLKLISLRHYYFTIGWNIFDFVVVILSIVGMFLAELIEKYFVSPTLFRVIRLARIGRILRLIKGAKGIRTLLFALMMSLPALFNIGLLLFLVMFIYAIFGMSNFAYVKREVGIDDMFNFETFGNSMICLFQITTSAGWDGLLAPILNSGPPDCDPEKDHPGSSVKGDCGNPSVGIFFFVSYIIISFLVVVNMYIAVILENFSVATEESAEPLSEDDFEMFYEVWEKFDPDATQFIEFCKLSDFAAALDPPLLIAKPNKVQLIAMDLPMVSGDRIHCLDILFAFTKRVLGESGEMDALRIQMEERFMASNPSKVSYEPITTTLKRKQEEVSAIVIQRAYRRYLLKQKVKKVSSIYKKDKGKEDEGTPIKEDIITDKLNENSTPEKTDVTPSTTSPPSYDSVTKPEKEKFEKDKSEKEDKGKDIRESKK
Sequence of rNaV1.2 (Q00954 19-218, further chain): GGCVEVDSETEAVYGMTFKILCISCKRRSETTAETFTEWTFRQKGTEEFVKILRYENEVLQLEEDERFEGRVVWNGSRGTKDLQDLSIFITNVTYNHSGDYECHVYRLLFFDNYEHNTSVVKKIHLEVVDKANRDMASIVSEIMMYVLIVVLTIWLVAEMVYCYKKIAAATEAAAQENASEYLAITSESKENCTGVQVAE

| Structure (SMILES) | IC50 (hNaV1.5) [µM] | inhibition at 100 µM (hNaV1.5) [%] | IC50 (rNaV1.8) [µM] | inhibition at 100 µM (rNaV1.8) [%] | IC50 (rNaV1.4) [µM] | inhibition at 100 µM (rNaV1.4) [%] | IC50 (mNaV1.6) [µM] | inhibition at 100 µM (mNaV1.6) [%] | IC50 (rNaV1.2) [µM] | inhibition at 100 µM (rNaV1.2) [%] | Maximum % inhibition NaV1.2 (rNaV1.2; peptide at 100 μM, 100 µM) [%] | Maximum % inhibition NaV1.4 (rNaV1.4) [%] | Maximum % inhibition NaV1.6 (mNaV1.6; peptide at 100 μM, 100 µM) [%] |
| --- | --- | --- | --- | --- | --- | --- | --- | --- | --- | --- | --- | --- | --- |
| C[C@@H]1NC(=O)[C@H](CC(N)=O)NC(=O)[C@H](Cc2c[nH]c3ccccc23)NC(=O)[C@H](CCCNC(=N)N)NC(=O)[C@H](C)NC(=O)[C@H](Cc2c[nH]c3ccccc23)NC(=O)[C@H](CCCNC(=N)N)NC(=O)[C@H](CCCNC(=N)N)NC(=O)[C@@H](N)CSSC[C@@H](C(N)=O)NC1=O [PnCS1[R9A], CRRWARWNAC ^*] (H-CRRWARWNAC-NH2; disulfide 1-10) | 9.2 ± 4.6 | 72 | > 100 | 0 | 1.1 ± 0.3 | 86 | 0.9 ± 0.4 | 79 | 6.7 ± 1.2 | 80 |  |  |  |
| C[C@@H]1NC(=O)[C@H](CCC(=O)O)NC(=O)[C@H](CCCNC(=N)N)NC(=O)[C@H](CCCNC(=N)N)NC(=O)[C@@H](N)CSSC[C@@H](C(N)=O)NC(=O)[C@H](CCCNC(=N)N)NC(=O)[C@H](CC(N)=O)NC(=O)[C@H](Cc2c[nH]c3ccccc23)NC(=O)[C@H](CCCNC(=N)N)NC1=O [PnCS1[W4E], CRREARWNRC ^*] (H-CRREARWNRC-NH2; disulfide 1-10) | > 100 | 34 | > 100 | 0 | 12.8 ± 4.1 | 59 | 14.8 ± 3.9 | 67 | 13.2 ± 5.2 | 72 |  |  |  |
| C[C@@H]1NC(=O)[C@H](Cc2c[nH]c3ccccc23)NC(=O)[C@H](CCCNC(=N)N)NC(=O)[C@H](CCC(=O)O)NC(=O)[C@@H](N)CSSC[C@@H](C(N)=O)NC(=O)[C@H](CCCNC(=N)N)NC(=O)[C@H](CC(N)=O)NC(=O)[C@H](Cc2c[nH]c3ccccc23)NC(=O)[C@H](CCCNC(=N)N)NC1=O [PnCS1[R2E], CERWARWNRC ^*] (H-CERWARWNRC-NH2; disulfide 1-10) | > 100 | 27 | > 100 | 0 | > 100 | 11 | > 100 | 5 | > 100 | 41 |  |  |  |
| C[C@@H]1NC(=O)[C@H](Cc2c[nH]c3ccccc23)NC(=O)[C@H](CCCNC(=N)N)NC(=O)[C@H](CCCNC(=N)N)NC(=O)[C@@H](N)CSSC[C@@H](C(=O)O)NC(=O)[C@H](CCCNC(=N)N)NC(=O)[C@H](CC(N)=O)NC(=O)[C@H](Cc2c[nH]c3ccccc23)NC(=O)[C@H](CCCNC(=N)N)NC1=O [PnCS1DeAm, CRRWARWNRC] (H-CRRWARWNRC-OH; disulfide 1-10) | > 100 | 10 | > 100 | 0 | > 100 | 43 | > 100 | 24 | > 100 | 34 |  |  |  |
| C[C@@H]1NC(=O)[C@H](Cc2c[nH]c3ccccc23)NC(=O)[C@H](CCCCN)NC(=O)[C@H](CCCNC(=N)N)NC(=O)[C@@H](N)CSSC[C@@H](C(N)=O)NC(=O)[C@H](CCCNC(=N)N)NC(=O)[C@H](CC(N)=O)NC(=O)[C@H](Cc2c[nH]c3ccccc23)NC(=O)[C@H](CCCNC(=N)N)NC1=O [PnCS1[R3K], CRKWARWNRC ^*] (H-CRKWARWNRC-NH2; disulfide 1-10) | 2.7 ± 0.6 | 94 | > 100 | 0 | 0.6 ± 0.3 | 92 | 0.8 ± 0.3 | 86 | 0.8 ± 0.3 | > 95 | 96 |  |  |
| C[C@@H]1NC(=O)[C@H](Cc2c[nH]c3ccccc23)NC(=O)[C@H](CCCNC(=N)N)NC(=O)[C@H](CCCNC(=N)N)NC(=O)[C@@H](N)CSSC[C@@H](C(N)=O)NC(=O)[C@H](CCCNC(=N)N)NC(=O)[C@H](CC(N)=O)NC(=O)[C@H](Cc2c[nH]c3ccccc23)NC(=O)[C@H](CCCCN)NC1=O [PnCS1[R6K], CRRWAKWNRC ^*] (H-CRRWAKWNRC-NH2; disulfide 1-10) | 3.3 ± 1.5 | 89 | > 100 | 0 | 0.6 ± 0.4 | 94 | 0.9 ± 0.3 | 88 | 8.7 ± 2.4 | 67 |  |  |  |
| C[C@@H]1NC(=O)[C@H](Cc2c[nH]c3ccccc23)NC(=O)[C@H](CCCNC(=N)N)NC(=O)[C@H](CCCNC(=N)N)NC(=O)[C@@H](N)CSSC[C@@H](C(N)=O)NC(=O)[C@H](CCCNC(=N)N)NC(=O)[C@H](CC(N)=O)NC(=O)[C@H](CCCCN)NC(=O)[C@H](CCCNC(=N)N)NC1=O [PnCS1[W7K], CRRWARKNRC ^*] (H-CRRWARKNRC-NH2; disulfide 1-10) | 3 ± 0.7 | 90 | > 100 | 0 | 1.7 ± 0.5 | 87 | 8.2 ± 0.6 | 82 | 2.8 ± 0.5 | 71 |  |  |  |
| C[C@@H]1NC(=O)[C@H](Cc2c[nH]c3ccccc23)NC(=O)[C@H](CCCNC(=N)N)NC(=O)[C@H](C)NC(=O)[C@@H](N)CSSC[C@@H](C(N)=O)NC(=O)[C@H](CCCNC(=N)N)NC(=O)[C@H](CC(N)=O)NC(=O)[C@H](Cc2c[nH]c3ccccc23)NC(=O)[C@H](CCCNC(=N)N)NC1=O [PnCS1[R2A], CARWARWNRC ^*] (H-CARWARWNRC-NH2; disulfide 1-10) | 1.7 ± 0.7 | 68 | > 100 | 0 | 1.4 ± 0.4 | > 95 | 1.6 ± 0.5 | 71 | 2.9 ± 0.5 | 84 |  | 96 |  |
| C[C@@H]1NC(=O)[C@H](C)NC(=O)[C@H](CCCNC(=N)N)NC(=O)[C@H](CCCNC(=N)N)NC(=O)[C@@H](N)CSSC[C@@H](C(N)=O)NC(=O)[C@H](CCCNC(=N)N)NC(=O)[C@H](CC(N)=O)NC(=O)[C@H](Cc2c[nH]c3ccccc23)NC(=O)[C@H](CCCNC(=N)N)NC1=O [PnCS1[W4A], CRRAARWNRC ^*] (H-CRRAARWNRC-NH2; disulfide 1-10) | 3.4 ± 0.2 | 82 | > 100 | 0 | 0.7 ± 0.3 | 95 | 1.2 ± 0.3 | 76 | 0.8 ± 0.3 | 89 |  |  |  |
| N=C(N)NCCC[C@@H]1NC(=O)[C@H](CC(N)=O)NC(=O)[C@H](Cc2c[nH]c3ccccc23)NC(=O)[C@H](CCCNC(=N)N)NC(=O)[C@H](CCCCN)NC(=O)[C@H](Cc2c[nH]c3ccccc23)NC(=O)[C@H](CCCNC(=N)N)NC(=O)[C@H](CCCNC(=N)N)NC(=O)[C@@H](N)CSSC[C@@H](C(N)=O)NC1=O [PnCS1[A5K], CRRWKRWNRC ^*] (H-CRRWKRWNRC-NH2; disulfide 1-10) | 2.1 ± 0.2 | 92 | > 100 | 0 | 1.9 ± 0.8 | 91 | 0.7 ± 0.3 | 93 | 1.2 ± 0.4 | 84 |  |  |  |
| C[C@@H]1NC(=O)[C@H](Cc2c[nH]c3ccccc23)NC(=O)[C@H](CCCNC(=N)N)NC(=O)[C@H](CCCNC(=N)N)NC(=O)[C@@H](N)CSSC[C@@H](C(N)=O)NC(=O)[C@H](CCCCN)NC(=O)[C@H](CC(N)=O)NC(=O)[C@H](Cc2c[nH]c3ccccc23)NC(=O)[C@H](CCCNC(=N)N)NC1=O [PnCS1[R9K], CRRWARWNKC ^*] (H-CRRWARWNKC-NH2; disulfide 1-10) | 9.2 ± 0.6 | 67 | > 100 | 0 | 6.1 ± 2.1 | 66 | 6.7 ± 0.8 | 72 | 10.2 ± 4.3 | 62 |  |  |  |
| C[C@@H]1NC(=O)[C@H](C)NC(=O)[C@H](Cc2c[nH]c3ccccc23)NC(=O)[C@H](CCCNC(=N)N)NC(=O)[C@H](CCCNC(=N)N)NC(=O)[C@@H](N)CSSC[C@@H](C(N)=O)NC(=O)[C@H](CCCNC(=N)N)NC(=O)[C@H](CC(N)=O)NC(=O)[C@H](Cc2c[nH]c3ccccc23)NC1=O [PnCS1[R6A], CRRWAAWNRC ^*] (H-CRRWAAWNRC-NH2; disulfide 1-10) | 7.6 ± 2.2 | 78 | > 100 | 0 | 0.5 ± 0.2 | > 95 | 0.9 ± 0.2 | > 95 | 9.2 ± 1.1 | 73 |  | 90 | 96 |
| C[C@@H]1NC(=O)[C@H](Cc2c[nH]c3ccccc23)NC(=O)[C@H](CCCNC(=N)N)NC(=O)[C@H](CCCNC(=N)N)NC(=O)[C@@H](N)CSSC[C@@H](C(N)=O)NC(=O)[C@H](CCCNC(=N)N)NC(=O)[C@H](CCC(=O)O)NC(=O)[C@H](Cc2c[nH]c3ccccc23)NC(=O)[C@H](CCCNC(=N)N)NC1=O [PnCS1[N8E], CRRWARWERC ^*] (H-CRRWARWERC-NH2; disulfide 1-10) | > 100 | 44 | > 100 | 0 | > 100 | 53 | > 100 | 27 | > 100 | 47 |  |  |  |

Source: article PMC9116130 (Biochemical pharmacology, 2020)
